The values that follow come from US20060084688A1, “Aromatic sulfone hydroxamic acid metalloprotease inhibitor” (priority 1997, published 2006).

Counter-ions that a name gives are not always drawn. Like-named read-outs stand apart in the source and are kept apart here.

Holding throughout (assay): biochemical
One experiment deals with recombinant human MMP-13 (Homo sapiens, UniProt P45452).
The target of the next experiment is T1, recombinant human MMP-2 (Homo sapiens, UniProt P08253).
T1 sequence (P08253 110-660): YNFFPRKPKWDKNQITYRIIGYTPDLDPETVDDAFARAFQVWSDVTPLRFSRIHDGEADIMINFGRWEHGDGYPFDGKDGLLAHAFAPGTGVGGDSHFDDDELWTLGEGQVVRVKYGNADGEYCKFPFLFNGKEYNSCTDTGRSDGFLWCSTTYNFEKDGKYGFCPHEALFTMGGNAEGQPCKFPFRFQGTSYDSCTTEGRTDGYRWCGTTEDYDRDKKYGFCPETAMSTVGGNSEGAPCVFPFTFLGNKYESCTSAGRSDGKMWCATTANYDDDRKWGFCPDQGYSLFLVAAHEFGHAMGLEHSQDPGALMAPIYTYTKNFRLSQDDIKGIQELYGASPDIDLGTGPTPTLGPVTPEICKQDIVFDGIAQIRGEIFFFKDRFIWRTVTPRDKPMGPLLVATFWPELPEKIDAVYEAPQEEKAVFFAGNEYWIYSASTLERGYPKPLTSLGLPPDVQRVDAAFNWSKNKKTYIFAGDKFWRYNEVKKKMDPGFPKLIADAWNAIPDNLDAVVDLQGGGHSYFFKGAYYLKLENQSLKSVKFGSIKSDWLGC

For another experiment, the target named is T2, recombinant human MMP-1 (Homo sapiens, UniProt P03956).
T2 construct: made in house; host or cells: transfected HT-1080 cells
T2 sequence (P03956 100-469): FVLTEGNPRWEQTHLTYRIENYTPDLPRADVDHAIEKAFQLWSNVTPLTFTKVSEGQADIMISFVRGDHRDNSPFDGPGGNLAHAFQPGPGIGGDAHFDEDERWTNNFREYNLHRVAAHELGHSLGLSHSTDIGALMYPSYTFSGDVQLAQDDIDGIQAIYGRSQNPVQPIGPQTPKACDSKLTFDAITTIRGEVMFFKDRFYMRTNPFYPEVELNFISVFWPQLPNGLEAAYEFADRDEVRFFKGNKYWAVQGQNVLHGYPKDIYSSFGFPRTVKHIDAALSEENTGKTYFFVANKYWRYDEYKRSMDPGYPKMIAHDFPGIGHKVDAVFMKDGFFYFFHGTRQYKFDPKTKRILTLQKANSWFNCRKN

The term IC50 denotes the concentration that inhibits the measured activity by half. Regarding `O=C(NO)C1(S(=O)(=O)c2ccc(SC3CCCCC3)cc2)CCN(C2CC2)CC1` [Example 21], the IC50 at recombinant human MMP-13 (room temperature, pH 7.5, 1 percent DMSO, 4 μM MCA peptide substrate) is 0.6 nM; on recombinant human MMP-2 (room temperature, pH 7.5, 1 percent DMSO, 4 μM MCA peptide substrate, no asterisk), 1.3 nM; on recombinant human MMP-1, greater than 10000 nM.
Consider `C#CCN1CCC(C(=O)O)(S(=O)(=O)c2ccc(Sc3ccc(Cl)cc3)cc2)CC1` [Example 44a, 4-[[4-(4-chlorophenyl)thio]phenyl)sulfonyl]-1-(propynyl)-4-piperidinecarboxylic acid, monohydrochloride], for which the IC50 on recombinant human MMP-13 (Inhibition Table B) was 0.2 nM; at recombinant human MMP-2 (Inhibition Table B), less than 0.1 nM; on recombinant human MMP-1 (Inhibition Table B) it was greater than 10000 nM.
As to `C#CCN1CCC(C(=O)NO)(S(=O)(=O)c2ccc(Sc3ccc(Cl)cc3)cc2)CC1` [Example 44b, 4-[[4-(4-chlorophenyl)thio]phenyl]sulfonyl]-N-hydroxy-1-(propynyl)-4-piperidinecarboxamide, monohydrochloride], the IC50 on recombinant human MMP-13 (Inhibition Table B) was greater than 10000 nM; at recombinant human MMP-2 (Inhibition Table B), 8000 nM; at recombinant human MMP-1 (Inhibition Table B), greater than 10000 nM.
Regarding `C#CCN1CCC(C(=O)NO)(S(=O)(=O)c2ccc([S+]([O-])c3ccccc3)cc2)CC1` (stereo not drawn) [Example 47b], the IC50 on recombinant human MMP-13 (Inhibition Table B) is 3100 nM; at recombinant human MMP-2 (Inhibition Table B) it was 3000 nM; on recombinant human MMP-1 (Inhibition Table B), greater than 10000 nM.
The corresponding values for `O=C(O)C1CCN(c2ccc(S(=O)(=O)C3(C(=O)NO)CCOCC3)cc2)CC1` [Example 129] are 1000 nM, greater than 100 nM and greater than 10000 nM.
The corresponding values for `CNC(=O)C1CCN(c2ccc(S(=O)(=O)C3(C(=O)NO)CCOCC3)cc2)CC1` [Example 130] are 45.9 nM, 57.7 nM and greater than 10000 nM.
The corresponding values for `O=C(C1CCN(c2ccc(S(=O)(=O)C3(C(=O)NO)CCOCC3)cc2)CC1)N1CCOCC1` [Example 131] are 10 nM, 650 nM and greater than 10000 nM.
Turning to `O=C(NCCO)C1CCN(c2ccc(S(=O)(=O)C3(C(=O)NO)CCOCC3)cc2)CC1` [Example 132], the figures for the IC50 on recombinant human MMP-2 (Inhibition Table B) and at recombinant human MMP-1 (Inhibition Table B) were 420 nM and greater than 10000 nM, respectively.
On to `NCCCNC(=O)C1CCN(c2ccc(S(=O)(=O)C3(C(=O)NO)CCOCC3)cc2)CC1` [Example 133], for which the IC50 was 27 nM at recombinant human MMP-13 (Inhibition Table B), 90 nM at recombinant human MMP-2 (Inhibition Table B) and greater than 10000 nM on recombinant human MMP-1 (Inhibition Table B).
The corresponding values for `CCNC(=O)C1CCN(c2ccc(S(=O)(=O)C3(C(=O)NO)CCOCC3)cc2)CC1` [Example 134] are 4 nM, 29 nM and 9000 nM.
For `O=C(O)CNC(=O)C1CCN(c2ccc(S(=O)(=O)C3(C(=O)NO)CCOCC3)cc2)CC1` [Example 135], in that order: 65 nM, 500 nM and greater than 10000 nM.
Consider `O=C(NO)C1CCN(c2ccc(S(=O)(=O)C3(C(=O)NO)CCOCC3)cc2)CC1` [Example 137], for which the IC50 was 34.7 nM at recombinant human MMP-13 (Inhibition Table B), 300 nM on recombinant human MMP-2 (Inhibition Table B) and greater than 10000 nM on recombinant human MMP-1 (Inhibition Table B).
For `O=C(O)C1CCCN(c2ccc(S(=O)(=O)C3(C(=O)NO)CCOCC3)cc2)C1` (stereo not drawn) [Example 138], the IC50 at recombinant human MMP-13 (Inhibition Table B) was greater than 100 nM; at recombinant human MMP-2 (Inhibition Table B) it was greater than 100 nM; at recombinant human MMP-1 (Inhibition Table B), greater than 10000 nM.
With `CNC(=O)C1CCCN(c2ccc(S(=O)(=O)C3(C(=O)NO)CCOCC3)cc2)C1` (stereo not drawn) [Example 139], the figures for the IC50 on recombinant human MMP-13 (Inhibition Table B) and at recombinant human MMP-1 (Inhibition Table B) were 25.4 nM and greater than 10000 nM, respectively.
Regarding `O=C(C1CCCN(c2ccc(S(=O)(=O)C3(C(=O)NO)CCOCC3)cc2)C1)N1CCOCC1` (stereo not drawn) [Example 140], the values for the concentration for half-maximal inhibition (IC50) at recombinant human MMP-13 (Inhibition Table B) and on recombinant human MMP-1 (Inhibition Table B) were 60 nM and greater than 10000 nM, respectively.
Consider `O=C(NCCO)C1CCCN(c2ccc(S(=O)(=O)C3(C(=O)NO)CCOCC3)cc2)C1` (stereo not drawn) [Example 141], for which the figures for the concentration for half-maximal inhibition (IC50) on recombinant human MMP-13 (Inhibition Table B), at recombinant human MMP-2 (Inhibition Table B) and on recombinant human MMP-1 (Inhibition Table B) were greater than 100 nM, greater than 100 nM and greater than 10000 nM, respectively.
Regarding `NCCCNC(=O)C1CCCN(c2ccc(S(=O)(=O)C3(C(=O)NO)CCOCC3)cc2)C1` (stereo not drawn) [Example 142], the IC50 is 70 nM on recombinant human MMP-13 (Inhibition Table B), 600 nM on recombinant human MMP-2 (Inhibition Table B) and greater than 10000 nM on recombinant human MMP-1 (Inhibition Table B).
Take `CCNC(=O)C1CCCN(c2ccc(S(=O)(=O)C3(C(=O)NO)CCOCC3)cc2)C1` (stereo not drawn) [Example 143]: the IC50 at recombinant human MMP-13 (Inhibition Table B) was 23.9 nM; at recombinant human MMP-2 (Inhibition Table B) it was 900 nM; on recombinant human MMP-1 (Inhibition Table B), greater than 10000 nM.
For `O=C(O)CNC(=O)C1CCCN(c2ccc(S(=O)(=O)C3(C(=O)NO)CCOCC3)cc2)C1` (stereo not drawn) [Example 144], in that order: 30.7 nM, 800 nM and greater than 10000 nM.
For `O=C(NO)C1CCCN(c2ccc(S(=O)(=O)C3(C(=O)NO)CCOCC3)cc2)C1` (stereo not drawn) [Example 146], in that order: 32.6 nM, 650 nM and greater than 10000 nM.
For `CN(C)C(=O)C1CCN(c2ccc(S(=O)(=O)C3(C(=O)NO)CCOCC3)cc2)CC1` [Example 147], the results for the IC50 at recombinant human MMP-13 (Inhibition Table B), at recombinant human MMP-2 (Inhibition Table B) and on recombinant human MMP-1 (Inhibition Table B) were 31 nM, 2700 nM and greater than 10000 nM, respectively.
The corresponding values for `CCN(CC)C(=O)C1CCN(c2ccc(S(=O)(=O)C3(C(=O)NO)CCOCC3)cc2)CC1` [Example 148] are 31 nM, 2400 nM and greater than 10000 nM.
The corresponding values for `O=C(C1CCN(c2ccc(S(=O)(=O)C3(C(=O)NO)CCOCC3)cc2)CC1)N1CCCCC1` [Example 149] are 15.5 nM, 1600 nM and greater than 10000 nM.
For `CN1CCN(C(=O)C2CCN(c3ccc(S(=O)(=O)C4(C(=O)NO)CCOCC4)cc3)CC2)CC1` [Example 150], in that order: 14.5 nM, 1300 nM and greater than 10000 nM.
Turning to `O=C(C1CCN(c2ccc(S(=O)(=O)C3(C(=O)NO)CCOCC3)cc2)CC1)N1CCNCC1` [Example 151], the IC50 was 35 nM at recombinant human MMP-13 (Inhibition Table B), 1500 nM at recombinant human MMP-2 (Inhibition Table B) and greater than 10000 nM on recombinant human MMP-1 (Inhibition Table B).
In the case of `CCOC(=O)C1CCN(C(=O)C2CCN(c3ccc(S(=O)(=O)C4(C(=O)NO)CCOCC4)cc3)CC2)CC1` [Example 152], the results for the IC50 at recombinant human MMP-13 (Inhibition Table B), on recombinant human MMP-2 (Inhibition Table B) and on recombinant human MMP-1 (Inhibition Table B) were 16.5 nM, 2400 nM and greater than 10000 nM, respectively.
Take `CCOC(=O)C1CCCN(C(=O)C2CCN(c3ccc(S(=O)(=O)C4(C(=O)NO)CCOCC4)cc3)CC2)C1` (stereo not drawn) [Example 153]: the IC50 on recombinant human MMP-13 (Inhibition Table B) is 13.5 nM; on recombinant human MMP-2 (Inhibition Table B), 2700 nM; on recombinant human MMP-1 (Inhibition Table B) it was greater than 10000 nM.
Regarding `CCOC(=O)C1CCCCN1C(=O)C1CCN(c2ccc(S(=O)(=O)C3(C(=O)NO)CCOCC3)cc2)CC1` (stereo not drawn) [Example 154], the figures for the IC50 at recombinant human MMP-13 (Inhibition Table B), at recombinant human MMP-2 (Inhibition Table B) and on recombinant human MMP-1 (Inhibition Table B) were 27 nM, 1600 nM and greater than 10000 nM, respectively.
The corresponding values for `CN(C)C(=O)C1CCCN(c2ccc(S(=O)(=O)C3(C(=O)NO)CCOCC3)cc2)C1` (stereo not drawn) [Example 155] are greater than 100 nM, greater than 1000 nM and greater than 10000 nM.
For `O=C(C1CCCN(c2ccc(S(=O)(=O)C3(C(=O)NO)CCOCC3)cc2)C1)N1CCCCC1` (stereo not drawn) [Example 156], in that order: 27.8 nM, 3300 nM and greater than 10000 nM.
Turning to `C[C@@H]1CN(C(=O)C2CCCN(c3ccc(S(=O)(=O)C4(C(=O)NO)CCOCC4)cc3)C2)C[C@H](C)O1` (stereo partly drawn) [Example 169], the values for the IC50 on recombinant human MMP-13 (Inhibition Table B) and at recombinant human MMP-2 (Inhibition Table B) were greater than 100 nM and greater than 1000 nM, respectively.
As for `O=C(C1CCCN(c2ccc(S(=O)(=O)C3(C(=O)NO)CCOCC3)cc2)C1)N1CCCC2CCCCC21` (stereo not drawn) [Example 170], the IC50 is greater than 100 nM at recombinant human MMP-13 (Inhibition Table B) and greater than 1000 nM at recombinant human MMP-2 (Inhibition Table B).
Take `N[C@H]1CCN(C(=O)C2CCN(c3ccc(S(=O)(=O)C4(C(=O)NO)CCOCC4)cc3)CC2)C1` [Example 175]: the IC50 at recombinant human MMP-13 (Inhibition Table B) was greater than 100 nM; on recombinant human MMP-2 (Inhibition Table B), greater than 1000 nM.
The corresponding values for `C[C@@H]1CN(C(=O)C2CCN(c3ccc(S(=O)(=O)C4(C(=O)NO)CCOCC4)cc3)CC2)C[C@H](C)O1` [Example 176] are 25 nM and 400 nM.
With `O=C(C1CCN(c2ccc(S(=O)(=O)C3(C(=O)NO)CCOCC3)cc2)CC1)N1CCCC1` [Example 179], the values for the IC50 on recombinant human MMP-2 (Inhibition Table B) and at recombinant human MMP-1 (Inhibition Table B) were 440 nM and greater than 10000 nM, respectively.
Take `CCCCNC(=O)C1CCN(c2ccc(S(=O)(=O)C3(C(=O)NO)CCOCC3)cc2)CC1` [Example 181]: the IC50 was found to be 6.1 nM on recombinant human MMP-13 (Inhibition Table B) and 121 nM on recombinant human MMP-2 (Inhibition Table B).
For `O=C(NC1CCCCCC1)C1CCN(c2ccc(S(=O)(=O)C3(C(=O)NO)CCOCC3)cc2)CC1` [Example 194], in that order: 8 nM and 165 nM.
For the molecule `O=C(NCc1ccncc1)C1CCN(c2ccc(S(=O)(=O)C3(C(=O)NO)CCOCC3)cc2)CC1` [Example 195], the IC50 at recombinant human MMP-13 (Inhibition Table B) was found to be 14.5 nM.
